Measurements as given in patent US20150197492A1, “NOVEL INDENO[1,2-c]QUINOLIN-11-ONE DERIVATIVES, PREPARATION METHOD AND APPLICATION THEREOF” (National Defense Medical Center, priority 2014, published 2015).

Tests used:
Test in all cases: cells
Assay type in all cases: cell-based
[1] = system: RPMI-8226
[2] = system: HL-60 (TB)
[3] = system: HCT-116
[4] = system: RXF 393
[5] = system: A549/ATCC
[6] = system: MDA-MB-231/ATCC
[7] = system: NCI-H226
[8] = system: TK-10; settings: TK-10 (Renal Cancer), 10 μM, 48 hours
[9] = system: HCC-2998
[10] = system: SF-539
[11] = system: A498
[12] = system: SF-268
[13] = system: SK-MEL-2; settings: Melanoma SK-MEL-2
[14] = system: SW-620
[15] = system: U251; settings: CNS Cancer U251
[16] = system: COLO 205
[17] = system: SNB-75
[18] = system: M14
[19] = system: UO-31
[20] = system: SK-MEL-5
[21] = system: MCF7
[22] = system: NCI-H460
[23] = system: SK-OV-3
[24] = system: HCT-15
[25] = system: NCI/ADR-RES
[26] = system: LOX IMVI; settings: Melanoma LOX IMV1
[27] = system: HOP-62
[28] = system: IGROV1
[29] = system: NCI-H23
[30] = system: K-562
[31] = Homo sapiens, Colon Cancer HCT-116
[32] = Homo sapiens, Non-Small Cell Lung Cancer A549/ATCC
[33] = Homo sapiens, Breast Cancer MDA-MB-231/ATCC
[34] = Homo sapiens, CNS Cancer SF-539
[35] = Homo sapiens, CNS Cancer SF-268
[36] = Homo sapiens, Colon Cancer SW-620
[37] = Homo sapiens, Colon Cancer COLO 205
[38] = Homo sapiens, Non-Small Cell Lung Cancer HOP-62
[39] = Homo sapiens, Non-Small Cell Lung Cancer NCI-H23
[40] = Homo sapiens, K562, Leukemia K-562

`O=C1c2cc(Cl)ccc2-c2c(N3CCNCC3)nc3ccccc3c21` [SJ-10, 9-Chloro-6-(piperazin-1-yl)-11H-indeno[1,2-c]quinolin-11-one] was tested, and the GI50 ([1]; Homo sapiens, Leukemia RPMI-8226) was 7.48 µM, the CC50 ([1]; Homo sapiens, Leukemia RPMI-8226, read-out: LC50 (the source's name)) was > 100 µM and the TGI ([1]; Leukemia RPMI-8226) was >100 µM. It also gave a growth percentage ([1]; RPMI-8226 (Leukemia), 10 μM, 48 hours) of -43.57%, a growth percentage ([2]; HL-60 (TB) (Leukemia), 10 μM, 48 hours) of -38.36% and a GI50 ([2]; Homo sapiens, Leukemia HL-60(TB)) of 36.9 µM. For the same molecule, the CC50 ([2]; Homo sapiens, Leukemia HL-60(TB), read-out: LC50 (the source's name)) was > 100 µM, the TGI ([2]; Leukemia HL-60(TB)) was >100 µM and the TGI ([3]; Colon Cancer HCT-116) was >100 µM. For the same molecule, the growth percentage ([3]; HCT-116 (Colon Cancer), 10 μM, 48 hours) was -83.19%, the GI50 [3, 31] was 5.42 µM and the LC50 (50% lethal concentration) [3, 31] was > 100 µM. The GI50 ([4]; Homo sapiens, Renal Cancer RXF 393) was 4.55 µM, the CC50 ([4]; Homo sapiens, Renal Cancer RXF 393, read-out: LC50 (the source's name)) was > 100 µM and the growth percentage ([4]; RXF 393 (Renal Cancer), 10 μM, 48 hours) was 20.51%. The TGI ([4]; Renal Cancer RXF 393) was >100 µM, the growth percentage ([5]; A549/ATCC (Non-Small Cell Lung Cancer), 10 μM, 48 hours) was 18.70% and the GI50 [5, 32] was 4.87 µM. For the same molecule, the LC50 (50% lethal concentration) [5, 32] was > 100 µM, the TGI ([5]; Non-Small Cell Lung Cancer A549/ATCC) was >100 µM and the TGI ([6]; Breast Cancer MDA-MB-231/ATCC) was >100 µM. For the same molecule, the GI50 [6, 33] was 7.23 µM, the LC50 (concentration giving 50% net cell kill) [6, 33] was > 100 µM and the growth percentage ([6]; MDA-MB-231/ATCC (Breast Cancer), 10 μM, 48 hours) was -10.45%. For the same molecule, the GI50 ([7]; Homo sapiens, Non-Small Cell Lung Cancer NCI-H226) was 7.77 µM, the CC50 ([7]; Homo sapiens, Non-Small Cell Lung Cancer NCI-H226, read-out: LC50 (the source's name)) was > 100 µM and the growth percentage ([7]; NCI-H226 (Non-Small Cell Lung Cancer), 10 μM, 48 hours) was 49.94%. The TGI ([7]; Non-Small Cell Lung Cancer NCI-H226) was >100 µM, the growth percentage [8] was 47.07% and the TGI ([9]; Colon Cancer HCC-2998) was >100 µM. The growth percentage ([9]; HCC-2998 (Colon Cancer), 10 μM, 48 hours) was -55.83%, the GI50 ([9]; Homo sapiens, Colon Cancer HCC-2998) was 30.9 µM and the CC50 ([9]; Homo sapiens, Colon Cancer HCC-2998, read-out: LC50 (the source's name)) was > 100 µM. The TGI ([10]; CNS Cancer SF-539) was >100 µM, the GI50 [10, 34] was 14.2 µM and the LC50 (concentration giving 50% net cell kill) [10, 34] was > 100 µM. For the same molecule, the growth percentage ([10]; SF-539 (CNS Cancer), 10 μM, 48 hours) was 36.91%, the growth percentage ([11]; A498 (Renal Cancer), 10 μM, 48 hours) was 59.79% and the GI50 ([11]; Homo sapiens, Renal Cancer A498) was 2.63 µM. For the same molecule, the CC50 ([11]; Homo sapiens, Renal Cancer A498, read-out: LC50 (the source's name)) was > 100 µM, the TGI ([11]; Renal Cancer A498) was >100 µM and the TGI ([12]; CNS Cancer SF-268) was >100 µM. For the same molecule, the GI50 [12, 35] was 8.71 µM, the LC50 [12, 35] was > 100 µM and the growth percentage ([12]; SF-268 (CNS Cancer), 10 μM, 48 hours) was 34.33%. The GI50 ([13]; Homo sapiens) was 7.36 µM, the CC50 ([13]; Homo sapiens, read-out: LC50 (the source's name)) was > 100 µM and the TGI [13] was >100 µM. For the same molecule, the TGI ([14]; Colon Cancer SW-620) was >100 µM, the GI50 [14, 36] was 5.14 µM and the LC50 (concentration killing 50% of cells) [14, 36] was > 100 µM. The growth percentage ([14]; SW-620 (Colon Cancer), 10 μM, 48 hours) was -73.67%, the TGI [15] was >100 µM and the GI50 ([15]; Homo sapiens, U-251) was 4.82 µM. The LC50 (concentration killing 50% of cells) ([15]; Homo sapiens, U-251) was > 100 µM, the growth percentage ([16]; COLO 205 (Colon Cancer), 10 μM, 48 hours) was -81.49% and the TGI ([16]; Colon Cancer COLO 205) was >100 µM. For the same molecule, the GI50 [16, 37] was 12.2 µM, the LC50 (50% lethal concentration) [16, 37] was > 100 µM and the TGI ([17]; CNS Cancer SNB-75) was >100 µM. The GI50 ([17]; Homo sapiens, CNS Cancer SNB-75) was 4.53 µM, the CC50 ([17]; Homo sapiens, CNS Cancer SNB-75, read-out: LC50 (the source's name)) was > 100 µM and the growth percentage ([17]; SNB-75 (CNS Cancer), 10 μM, 48 hours) was 22.34%. For the same molecule, the GI50 ([18]; Homo sapiens, Melanoma M14) was 7.49 µM, the CC50 ([18]; Homo sapiens, Melanoma M14, read-out: LC50 (the source's name)) was > 100 µM and the growth percentage ([18]; M14 (Melanoma), 10 μM, 48 hours) was -56.24%. The TGI ([18]; Melanoma M14) was >100 µM, the GI50 ([19]; Homo sapiens, Renal Cancer UO-31) was 2.83 µM and the CC50 ([19]; Homo sapiens, Renal Cancer UO-31, read-out: LC50 (the source's name)) was > 100 µM. The TGI ([19]; Renal Cancer UO-31) was >100 µM, the growth percentage ([19]; UO-31 (Renal Cancer), 10 μM, 48 hours) was -40.61% and the GI50 ([20]; Homo sapiens, Melanoma SK-MEL-5) was 4.1 µM. For the same molecule, the CC50 ([20]; Homo sapiens, Melanoma SK-MEL-5, read-out: LC50 (the source's name)) was > 100 µM, the TGI ([20]; Melanoma SK-MEL-5) was >100 µM and the growth percentage ([20]; SK-MEL-5 (Melanoma), 10 μM, 48 hours) was 59.18%. The TGI ([21]; Breast Cancer MCF7) was >100 µM, the GI50 ([21]; Homo sapiens, Breast Cancer MCF7) was 5.42 µM and the CC50 ([21]; Homo sapiens, Breast Cancer MCF7, read-out: LC50 (the source's name)) was > 100 µM. The growth percentage ([21]; MCF7 (Breast Cancer), 10 μM, 48 hours) was -100.00%, the GI50 ([22]; Homo sapiens, Non-Small Cell Lung Cancer NCI-460) was 4.15 µM and the CC50 ([22]; Homo sapiens, Non-Small Cell Lung Cancer NCI-460, read-out: LC50 (the source's name)) was > 100 µM. For the same molecule, the growth percentage ([22]; NCI-H460 (Non-Small Cell Lung Cancer), 10 μM, 48 hours) was -66.36%, the TGI ([22]; Non-Small Cell Lung Cancer NCI-460) was >100 µM and the GI50 ([23]; Homo sapiens, Ovarian Cancer SK-OV-3) was 4.35 µM. The CC50 ([23]; Homo sapiens, Ovarian Cancer SK-OV-3, read-out: LC50 (the source's name)) was > 100 µM, the TGI ([23]; Ovarian Cancer SK-OV-3) was >100 µM and the growth percentage ([23]; SK-OV-3 (Ovarian Cancer), 10 μM, 48 hours) was 57.81%. The TGI ([24]; Colon Cancer HCT-15) was >100 µM, the growth percentage ([24]; HCT-15 (Colon Cancer), 10 μM, 48 hours) was -78.92% and the GI50 ([24]; Homo sapiens, Colon Cancer HCT-15) was 4.34 µM. For the same molecule, the CC50 ([24]; Homo sapiens, Colon Cancer HCT-15, read-out: LC50 (the source's name)) was > 100 µM, the GI50 ([25]; Homo sapiens, Ovarian Cancer NCI/ADR-RES) was 22.5 µM and the CC50 ([25]; Homo sapiens, Ovarian Cancer NCI/ADR-RES, read-out: LC50 (the source's name)) was > 100 µM. The growth percentage ([25]; NCI/ADR-RES (Ovarian Cancer), 10 μM, 48 hours) was -4.00%, the TGI ([25]; Ovarian Cancer NCI/ADR-RES) was >100 µM and the GI50 ([26]; Homo sapiens, LOX IMVI) was 4.74 µM. The CC50 ([26]; Homo sapiens, LOX IMVI, read-out: LC50 (the source's name)) was > 100 µM, the TGI [26] was >100 µM and the growth percentage ([27]; HOP-62 (Non-Small Cell Lung Cancer), 10 μM, 48 hours) was -61.80%. For the same molecule, the GI50 [27, 38] was 12.3 µM, the LC50 (50% lethal concentration) [27, 38] was > 100 µM and the TGI ([27]; Non-Small Cell Lung Cancer HOP-62) was >100 µM. For the same molecule, the GI50 ([28]; Homo sapiens, IGROV-1, Ovarian Cancer IGROV1) was 5.94 µM, the CC50 ([28]; Homo sapiens, IGROV-1, Ovarian Cancer IGROV1, read-out: LC50 (the source's name)) was > 100 µM and the growth percentage ([28]; IGROV1 (Ovarian Cancer), 10 μM, 48 hours) was 3.23%. The TGI ([28]; Ovarian Cancer IGROV1) was >100 µM, the GI50 [29, 39] was 6.65 µM and the LC50 [29, 39] was > 100 µM. The growth percentage ([29]; NCI-H23 (Non-Small Cell Lung Cancer), 10 μM, 48 hours) was 49.19%, the TGI ([29]; Non-Small Cell Lung Cancer NCI-H23) was >100 µM and the GI50 [30, 40] was 7.8 µM. The LC50 (lethal concentration, 50% cell kill) [30, 40] was > 100 µM, the growth percentage ([30]; K-562 (Leukemia), 10 μM, 48 hours) was -65.71% and the TGI ([30]; Leukemia K-562) was >100 µM.
